According to PMC12332266 (Frontiers in Pharmacology, 2025):
Like-named read-outs stand apart in the source and are kept apart here. Blank lines part the entries; values can stand above or below the compound they belong to.

How the values were obtained:
[1] = test system: hiPSC-CM (iCell Cardiomyocytes^2); assay: RTCA CardioECR assessment (impedance and electrophysiology parameters); details: for RTCA, MEC (CI): change ≥20%, Table 2
Method: (§1) Culture media change was performed every 2 days.
After seeding on fibronectin-coated xCELLigence ePlates (Agilent Technologies, Inc. Santa Clara, CA, USA), iCell^2 CM were monitored continuously through impedance electrodes. The following impedance parameters were measured: Cell Index (CI, measure of cell “health” and monolayer integrity), beating rate (BR) and amplitude (CI Amplitude, magnitude of contraction). Electrophysiology-like parameters (Field Potential Duration (FPD), considered as a surrogate for QT in in vivo studies, and Spike Amplitude (SA), depolarization induced by Na^+ channel opening) were measured starting from day 4–6, following the monolayer formation. […] All RTCA CardioECR data were double normalized (DMSO control and the baseline) with no further statistical group comparison for the normalized parameters. The variability of the data within the treatment groups was assessed by standard deviation.

[2] = test system: hiPSC-CM (iCell Cardiomyocytes^2); assay: Intracellular miRNA expression by RT-qPCR in hiPSC-CM pellets after 72-hour treatment; details: for fold induction at 0.3 µM / fold induction at 1 µM / fold induction at 3 µM / fold induction at 10 µM: Homo sapiens; for fold induction at 0.3 µM / fold induction at 1 µM / fold induction at 3 µM / fold induction at 10 µM / hsa-miR-7-5p fold change, intracellular / hsa-miR-29a-5p fold change, intracellular / hsa-miR-126-3p fold change, intracellular / hsa-miR-133b fold change, intracellular / hsa-miR-146b-5p fold change, intracellular / hsa-miR-182-5p fold change, intracellular / hsa-miR-185-3p fold change, intracellular / hsa-miR-187-3p fold change, intracellular / hsa-miR-208b-3p fold change, intracellular / hsa-miR-365a-5p fold change, intracellular / hsa-miR-96-5p fold change, intracellular: 72 h
Method: as §1
Total RNA was extracted from hiPSC-CM using the miRNeasy 96 Kit (Qiagen, Hilden, Germany) following the manufacturer’s recommendations. After the extraction, RNA purity was assessed by NanoDrop™ 8000 Spectrophotometer (Thermo Fisher Scientific Inc.). 5–10 ng/μL of RNA per sample were reverse transcribed and pre-amplified by using the TaqMan™ Advanced miRNA cDNA Synthesis Kit (Thermo Fisher Scientific Inc.). The synthesized cDNA was used for RT-qPCR with selected TaqMan™ assays (Thermo Fischer Scientific Inc.). RT-qPCR was carried out following the Applied Biosciences TaqMan miRNA expression assay protocol on a ViiA7 instrument (Thermo Fisher Scientific, Inc.). […] Therefore, to maximize the number of drugs and concentrations, explored in the same study, we pooled the triplicates for intracellular profiling of miRNAs. Therefore, no statistical analysis was performed on the data of miRNA profiling in the pellets of hiPSC-CM.
Following RTCA CardioECR assessment, hiPSC-CM cell pellets were collected, and total RNA was extracted and purified to investigate miRNAs upregulation by RT-qPCR. […] For the initial assessment of intracellular miRNAs in 12 different treatments, encompassing various drug classes, we used a panel of 17 miRNAs, which we selected from the publicly available data focusing mainly on in vitro models and structural cardiotoxicants (Supplementary Table S2).

[3] = ref extensive literature search, cited from earlier work
[4] = read-out: hsa-miR-7-5p fold change
[5] = read-out: hsa-miR-29a-5p fold change
[6] = read-out: hsa-miR-96-5p fold change
[7] = read-out: hsa-miR-126-3p fold change
[8] = read-out: hsa-miR-146b-5p fold change
[9] = read-out: hsa-miR-182-5p fold change
[10] = read-out: hsa-miR-185-3p fold change
[11] = read-out: hsa-miR-187-3p fold change
[12] = read-out: hsa-miR-208b-3p fold change

Contractility Amplitude MEC ([1]; human, 72 h): 0.0003 µM
Spike Amplitude (SA) MEC ([1]; human, 72 h): 10 µM
miRNAs hiPSC-CM pellet, MEC overall [2]: 0.3 µM
miRNAs upregulated at the MEC overall (hiPSC-CM pellet) [2]: miR-96-5p, miR-146b-5p
Compound: CCCN1C[C@H](CSC)C[C@@H]2c3cccc4[nH]cc(c34)C[C@H]21 [Pergolide]
fold induction at 0.3 µM [2, 4]: 1
fold induction at 1 µM [2, 4]: 0.7
fold induction at 3 µM [2, 4]: 1.4
fold induction at 10 µM [2, 4]: 1
fold induction at 0.3 µM [2, 5]: 1
fold induction at 1 µM [2, 5]: 0.2
fold induction at 0.3 µM [2, 6]: 2.8
fold induction at 1 µM [2, 6]: 5.6
fold induction at 0.3 µM [2, 7]: 1.2
fold induction at 1 µM [2, 7]: 1.1
fold induction at 3 µM [2, 7]: 1.1
fold induction at 10 µM [2, 7]: 2
fold induction at 0.3 µM [2, 8]: 4.3
fold induction at 1 µM [2, 8]: 6.1
fold induction at 3 µM [2, 8]: 20.8
fold induction at 10 µM [2, 8]: 1.1
fold induction at 0.3 µM [2, 9]: 0.5
fold induction at 1 µM [2, 9]: 2.2
fold induction at 3 µM [2, 9]: 0.9
fold induction at 10 µM [2, 9]: 2.2
fold induction at 0.3 µM [2, 10]: 1.1
fold induction at 1 µM [2, 10]: 5.6
fold induction at 3 µM [2, 10]: 7.2
fold induction at 10 µM [2, 10]: 1.9
fold induction at 0.3 µM [2, 11]: 0.6
fold induction at 1 µM [2, 11]: 0.9
fold induction at 3 µM [2, 11]: 21.8
fold induction at 10 µM [2, 11]: 0.6
fold induction at 0.3 µM [2, 12]: 1.5
fold induction at 1 µM [2, 12]: 2.2
fold induction at 3 µM [2, 12]: 2.6
fold induction at 10 µM [2, 12]: 2.5
fold induction at 1 µM ([2]; read-out: hsa-miR-365a-5p fold change): 5.2
fold induction at 0.3 µM ([2]; read-out: hsa-miR-[…] change): 0.9
fold induction at 1 µM ([2]; read-out: hsa-miR-[…] change): 1.1
fold induction at 3 µM ([2]; read-out: hsa-miR-[…] change): 1.7
fold induction at 10 µM ([2]; read-out: hsa-miR-[…] change): 1.4
Cmax total ([3]; Supplementary Table 1): 12700 nM
Cmax total ([3]; Table 1): 12700 nM

Contractility Amplitude MEC ([1]; human, 72 h): 0.1 µM
Spike Amplitude (SA) MEC ([1]; human, 72 h): 0.01 µM
intracellular miRNA upregulation in hiPSC-CM, in words [2]: smallest fold change
miRNAs hiPSC-CM pellet, MEC overall [2]: 0.3 µM
miRNAs upregulated at the MEC overall (hiPSC-CM pellet) [2]: miR-126-3p
hsa-miR-7-5p fold change, intracellular ([2]; 0.01 µM): 1.2
hsa-miR-29a-5p fold change, intracellular ([2]; 0.01 µM): 0.5
hsa-miR-126-3p fold change, intracellular ([2]; 0.01 µM): 1.4
hsa-miR-133b fold change, intracellular ([2]; 0.01 µM): 0.3
hsa-miR-146b-5p fold change, intracellular ([2]; 0.01 µM): 0.2
hsa-miR-182-5p fold change, intracellular ([2]; 0.01 µM): 0.3
hsa-miR-185-3p fold change, intracellular ([2]; 0.01 µM): 0.7
hsa-miR-187-3p fold change, intracellular ([2]; 0.01 µM): 0.7
hsa-miR-208b-3p fold change, intracellular ([2]; 0.01 µM): 1.0
hsa-miR-365a-5p fold change, intracellular ([2]; 0.01 µM): 0.8
hsa-miR-7-5p fold change, intracellular ([2]; 0.1 µM): 1.2
hsa-miR-29a-5p fold change, intracellular ([2]; 0.1 µM): 0.2
hsa-miR-96-5p fold change, intracellular ([2]; 0.1 µM): 0.3
hsa-miR-126-3p fold change, intracellular ([2]; 0.1 µM): 3.0
hsa-miR-133b fold change, intracellular ([2]; 0.1 µM): 0.2
hsa-miR-146b-5p fold change, intracellular ([2]; 0.1 µM): 0.2
hsa-miR-182-5p fold change, intracellular ([2]; 0.1 µM): 0.2
hsa-miR-185-3p fold change, intracellular ([2]; 0.1 µM): 1.5
hsa-miR-187-3p fold change, intracellular ([2]; 0.1 µM): 0.7
hsa-miR-208b-3p fold change, intracellular ([2]; 0.1 µM): 1.1
hsa-miR-365a-5p fold change, intracellular ([2]; 0.1 µM): 0.2
hsa-miR-7-5p fold change, intracellular ([2]; 0.3 µM): 0.5
hsa-miR-29a-5p fold change, intracellular ([2]; 0.3 µM): 0.2
hsa-miR-126-3p fold change, intracellular ([2]; 0.3 µM): 4.3
hsa-miR-133b fold change, intracellular ([2]; 0.3 µM): 0.4
hsa-miR-146b-5p fold change, intracellular ([2]; 0.3 µM): 0.2
hsa-miR-182-5p fold change, intracellular ([2]; 0.3 µM): 0.7
hsa-miR-185-3p fold change, intracellular ([2]; 0.3 µM): 0.7
hsa-miR-187-3p fold change, intracellular ([2]; 0.3 µM): 0.5
hsa-miR-208b-3p fold change, intracellular ([2]; 0.3 µM): 0.5
hsa-miR-365a-5p fold change, intracellular ([2]; 0.3 µM): 0.7
hsa-miR-7-5p fold change, intracellular ([2]; 1 µM): 0.9
hsa-miR-29a-5p fold change, intracellular ([2]; 1 µM): 0.4
hsa-miR-96-5p fold change, intracellular ([2]; 1 µM): 1.4
hsa-miR-126-3p fold change, intracellular ([2]; 1 µM): 5.5
hsa-miR-133b fold change, intracellular ([2]; 1 µM): 0.3
hsa-miR-146b-5p fold change, intracellular ([2]; 1 µM): 0.3
hsa-miR-182-5p fold change, intracellular ([2]; 1 µM): 0.4
hsa-miR-185-3p fold change, intracellular ([2]; 1 µM): 0.3
hsa-miR-187-3p fold change, intracellular ([2]; 1 µM): 0.7
hsa-miR-208b-3p fold change, intracellular ([2]; 1 µM): 1.2
Compound: Cc1cn(-c2cc(NC(=O)c3ccc(C)c(Nc4nccc(-c5cccnc5)n4)c3)cc(C(F)(F)F)c2)cn1 [Nilotinib]
Cell index (CI) MEC ([1]; hiPSC-CM, 72-hour treatment, lowest concentration causing at least 20% change from baseline): ND (ND – not detected, magnitude of change was lower than 20%)
RTCA, MEC (CI) ([1]; hiPSC-CM): ND (ND – not detected, magnitude of change was lower than 20% for CI/BR)
Cmax total ([3]; Supplementary Table 1): 840 to 4270 nM
Cmax total ([3]; Table 1): 840 to 4270 nM

RTCA, MEC (CI) ([1]; hiPSC-CM): 0.03 µM
Beating Rate MEC ([1]; human, 72 h): 0.1 µM
Beating rate (BR) MEC ([1]; human, 72 h): 0.1 µM
Contractility Amplitude MEC ([1]; human, 72 h): 0.1 µM
Field Potential Duration MEC ([1]; human, 72 h): 0.1 µM
Spike Amplitude (SA) MEC ([1]; human, 72 h): 0.1 µM
miRNAs hiPSC-CM pellet, MEC overall [2]: 0.01 µM
Compound: CC(C)C[C@H](NC(=O)[C@H](Cc1ccccc1)NC(=O)c1cnccn1)B(O)O [Bortezomib]
miRNAs upregulated at the MEC overall (hiPSC-CM pellet) [2]: miR-126-3p, miR-182-5p, miR-185-3p, miR-187-3p, miR-7-5p
Cmax total ([3]; Supplementary Table 1): 140 to 2800 nM
Cmax total ([3]; Table 1): 140 to 2800 nM
